Literature values, collected in patent US20190091195A1, “USE OF DIANHYDROGALACTITOL AND DERIVATIVES THEREOF IN THE TREATMENT OF GLIOBLASTOMA, LUNG CANCER, AND OVARIAN CANCER” (Del Mar Pharmaceuticals, priority 2015, published 2019).

Tests used:
GSK-3β = GSK-3β (Homo sapiens, UniProt P49841); details: cited from earlier work
[1] = cited from earlier work

Sequence of GSK-3β (P49841 whole entry, species assumed): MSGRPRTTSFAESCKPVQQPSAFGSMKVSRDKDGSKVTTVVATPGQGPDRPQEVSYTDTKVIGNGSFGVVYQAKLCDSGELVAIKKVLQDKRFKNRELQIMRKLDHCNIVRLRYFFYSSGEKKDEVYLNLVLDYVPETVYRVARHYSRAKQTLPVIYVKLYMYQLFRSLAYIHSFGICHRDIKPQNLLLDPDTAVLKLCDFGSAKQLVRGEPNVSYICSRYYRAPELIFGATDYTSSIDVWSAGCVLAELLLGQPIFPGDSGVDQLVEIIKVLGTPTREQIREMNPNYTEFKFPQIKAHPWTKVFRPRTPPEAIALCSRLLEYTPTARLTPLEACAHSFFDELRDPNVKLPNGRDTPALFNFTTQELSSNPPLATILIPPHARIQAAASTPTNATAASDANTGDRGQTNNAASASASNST

| SMILES | concentration for inhibition of GSK-3β (GSK-3β) [nM] | absorption by the oral route [1] |
| --- | --- | --- |
| CN1C(=O)/C(=C2/C(=O)Nc3ccccc32)c2ccccc21 [Meisoindigo] | 5 to 50 |  |
| O[C@H]([C@H](O)[C@@H](O)CBr)[C@H](O)CBr [dibromodulcitol] |  | rapid and fairly complete |
